Patent US6376500B2, “Substituted 2-(4-piperidyl)-4(3H)-quinazolinones and 2-(4-piperidyl)-4(3H)-azaquinazolinones” (Syntex (U.S.A.) LLC, priority 1999, dated 2002)
Structures can show the parent of a compound that is named as a salt.

Tested on: not given
Test: not given
Conditions: not given

Row | SMILES | melting point
1 | Cl.O=c1[nH]c(C2CCN(CCc3c[nH]c4cc(F)ccc34)CC2)nc2ccccc12 | 263 to 264 °C
2 | Cl.O=c1[nH]c(C2CCN(CCc3c[nH]c4ccc(F)cc34)CC2)nc2cc(F)ccc12 | 283 °C (dec.)
3 | Cl.O=c1[nH]c(C2CCN(CCc3c[nH]c4cc(F)ccc34)CC2)nc2cc(F)ccc12 | 205 to 209 °C
4 | Cl.Cl.O=c1[nH]c(C2CCN(CCc3c[nH]c4ccccc34)CC2)nc2cc(Cl)ccc12 | 190 to 195 °C
5 | Cl.O=c1[nH]c(C2CCN(CCc3c[nH]c4cc(F)ccc34)CC2)nc2ccc(Cl)cc12 | 292 to 294 °C
6 | Cl.O=c1[nH]c(C2CCN(CCc3c[nH]c4ccc(F)cc34)CC2)nc2cc(Cl)ccc12 | 300 °C (dec.)
7 | Cl.Cl.O=c1[nH]c(C2CCN(CCc3c[nH]c4cc(F)ccc34)CC2)nc2cc(F)c(F)cc12 | 215 to 217 °C
8 | Cl.O=c1[nH]c(C2CCN(CCc3c[nH]c4ccccc34)CC2)nc2cc(F)ccc12 | 220 to 225 °C
9 | O=c1[nH]c(C2CCN(CCc3c[nH]c4ccccc34)CC2)nc2ccccc12 (as salt: hydrochloride) | 268 to 270 °C
10 | COc1cc2nc(C3CCN(CCc4c[nH]c5cc(F)ccc45)CC3)[nH]c(=O)c2cc1OC.Cl | 229 to 231 °C
11 | Cl.Cl.O=c1[nH]c(C2CCN(CCc3c[nH]c4cc(F)ccc34)CC2)nc2ccc(F)cc12 | 195 to 197 °C
12 | Cl.O=c1[nH]c(C2CCN(CCc3c[nH]c4ccc(F)cc34)CC2)nc2ccc(Cl)cc12 | 290 °C (dec.)
13 | COc1ccc2nc(C3CCN(CCc4c[nH]c5cc(F)ccc45)CC3)[nH]c(=O)c2c1.Cl | 230 to 232 °C
14 | Cl.O=c1[nH]c(C2CCN(CCc3c[nH]c4cc(F)ccc34)CC2)nc2cc(Cl)ccc12 | 256 to 266 °C
15 | Cl.O=c1[nH]c(C2CCN(CCc3c[nH]c4ccc(F)cc34)CC2)nc2ccccc12 | 298 to 301 °C

Tested on: anesthetized dog
Test: Dog in vivo blood and intraurethral pressure assay
Conditions: i.v., anesthetized mongrel dogs
Procedure: The following describes an in vivo assay for measuring the relative effect of test compounds on hypogastric nerve stimulation-induced increases in intraurethral pressure and phenylephrine-induced increases in diastolic blood pressure in anesthetized dog.
Mongrel dogs (10 to 20 kg) were fasted for 12 to 18 hours and anesthetized with […] (35 mg/kg, i.v.). An endotracheal tube was inserted and thereafter the lungs were mechanically ventilated with room air. The right femoral vein was isolated and cannulated with two polyethylene cannulae, one for the administration of a continuous infusion of phenobarbital sodium (5 to 10 mg/kg/hr) and the other for bolus administration of test substances. The right femoral artery was isolated and cannulated to the abdominal aorta with a fluid filled polyethylene cannula connected to an external pressure transducer for monitoring diastolic aortic pressure (DAP). The bladder was exposed via a ventral midline abdominal incision and emptied of urine through a 22 gauge needle. The bladder was cannulated through a stab incision with a water filled balloon catheter connected to an external pressure transducer for monitoring prostatic intraurethral pressure (IUP). The right hypogastric nerve (HGN) was carefully isolated and attached to a Dastre's electrode for nerve stimulation. […]

Row | SMILES | inhibition of HGN stimulation-induced increases in IUP and phenylephrine-induced increases in DAP
16 | COc1cc2nc(N3CCN(C(=O)c4ccco4)CC3)nc(N)c2cc1OC [prazosin] | inhibited increases in IUP and DAP in similar fashion
